Molecular target: T1, acellular dermis model (contracted collagen gel) (Bos taurus, UniProt P02453+P02465)
T1 construct: purchased Koken, Tokyo, Japan; host or cells: The gel was contracted by dermal fibroblasts, which were then destroyed by washing with de-ionized water
Assay: Experimental induction of yellowish change in acellular dermis model by carbonyl modification or glycation (colorimetry b*)
Parameters: species or system bovine
Conditions: 37° C.; for yellowish change of the dermal model (b*), long term treatment: 50 μM, 50 days, FIGS. 6 C and D; for yellowish change of the gel (b*): 9 days, FIGS. 6 A and B
Protocol: Skin color was measured by using a chromameter Konica-Minolta CM 2600d. The measurement of excised skin samples was performed by placing the skin samples on a white board. Data were expressed in the CIE L*a*b* color space, and the parameter b* was employed as a value for yellowish color.
A dermal equivalent model consisted of contracted collagen gel containing a trace amount of other extracellular matrix was prepared according to the method described by Tsunenaga et al. with a slight modification. Briefly, dermal fibroblasts (1×10^6 cells) were cultivated in 10 ml of Dulbecco's modified Eagle's medium supplemented with 10% fetal bovine serum and 0.3% acid-solubilized bovine type I collagen (Koken, Tokyo, Japan) in a petri dish of 60 mm diameter at 37° C. and 5% CO2. After 7 days of culture, a contracted collagen gel approximately 15 mm diameter was produced. Thereafter, this dermal equivalent model was extensively washed with serial changes of an excess amount of de-ionized water to destroy fibroblasts and to remove soluble materials.
The prepared acellular dermis model was incubated in 2.5 ml of an aqueous solution of chemical reagents, containing acrolein (50 μM to 10 mM) and 4-hydroxynonenal (4-HNE, 50 μM to 10 mM) for the carbonyl modification, and ribose (200 mM) and glyoxal (10 mM) for glycation. They were INCUBATED at 37° C. and the solutions were changed twice a week. Changes taking place in their color were monitored by colorimetry.
To confirm a link suspected between the carbonyl modification and the yellowish change of the dermis, the inventors examined the effect of experimentally produced carbonyl modification on the color of an acellular dermis model, and selected a contracted collagen gel as a dermis model, and treated it with acrolein or 4-HNE to induce carbonyl modification, or with d-ribose or glyoxal to induce glycation as a reference. […] Furthermore, a long term treatment of the dermis model with 50 μM acrolein or 50 μM 4-HNE, which were almost equivalent to those of the physiological concentrations in human tissue, also led to the yellowish colorization (FIGS. 6 C and D).

T1 sequence (P02453 162-1217 limits assumed): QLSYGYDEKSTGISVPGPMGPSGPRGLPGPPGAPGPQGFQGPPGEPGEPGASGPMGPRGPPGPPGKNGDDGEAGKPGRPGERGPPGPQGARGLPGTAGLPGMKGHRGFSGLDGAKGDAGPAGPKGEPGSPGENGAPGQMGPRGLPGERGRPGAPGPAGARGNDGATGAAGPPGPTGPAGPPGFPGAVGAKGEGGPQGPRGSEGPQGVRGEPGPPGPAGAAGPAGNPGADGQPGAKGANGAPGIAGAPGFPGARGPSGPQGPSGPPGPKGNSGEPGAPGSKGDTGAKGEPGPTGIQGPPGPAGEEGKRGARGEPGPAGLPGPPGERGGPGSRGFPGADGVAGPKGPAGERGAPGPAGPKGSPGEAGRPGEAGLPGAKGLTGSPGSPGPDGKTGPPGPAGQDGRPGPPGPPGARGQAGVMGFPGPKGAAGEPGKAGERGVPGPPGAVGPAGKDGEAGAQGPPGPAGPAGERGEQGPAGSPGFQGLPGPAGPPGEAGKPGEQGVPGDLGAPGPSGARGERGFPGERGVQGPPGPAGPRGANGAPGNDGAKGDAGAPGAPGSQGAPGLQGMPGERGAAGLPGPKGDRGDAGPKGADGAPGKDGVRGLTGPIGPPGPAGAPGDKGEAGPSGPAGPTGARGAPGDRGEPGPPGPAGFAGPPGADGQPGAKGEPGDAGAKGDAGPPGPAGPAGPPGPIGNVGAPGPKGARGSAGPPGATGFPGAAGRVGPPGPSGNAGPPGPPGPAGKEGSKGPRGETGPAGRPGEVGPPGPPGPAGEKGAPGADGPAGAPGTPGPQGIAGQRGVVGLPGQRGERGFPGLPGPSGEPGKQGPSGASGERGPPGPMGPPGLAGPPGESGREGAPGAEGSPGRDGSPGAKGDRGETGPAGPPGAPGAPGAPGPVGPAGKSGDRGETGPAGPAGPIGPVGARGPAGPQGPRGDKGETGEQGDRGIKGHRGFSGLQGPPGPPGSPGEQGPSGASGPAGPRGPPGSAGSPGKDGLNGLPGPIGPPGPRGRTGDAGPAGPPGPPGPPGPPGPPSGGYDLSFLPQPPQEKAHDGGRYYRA
T1 sequence (P02465 80-1117 limits assumed): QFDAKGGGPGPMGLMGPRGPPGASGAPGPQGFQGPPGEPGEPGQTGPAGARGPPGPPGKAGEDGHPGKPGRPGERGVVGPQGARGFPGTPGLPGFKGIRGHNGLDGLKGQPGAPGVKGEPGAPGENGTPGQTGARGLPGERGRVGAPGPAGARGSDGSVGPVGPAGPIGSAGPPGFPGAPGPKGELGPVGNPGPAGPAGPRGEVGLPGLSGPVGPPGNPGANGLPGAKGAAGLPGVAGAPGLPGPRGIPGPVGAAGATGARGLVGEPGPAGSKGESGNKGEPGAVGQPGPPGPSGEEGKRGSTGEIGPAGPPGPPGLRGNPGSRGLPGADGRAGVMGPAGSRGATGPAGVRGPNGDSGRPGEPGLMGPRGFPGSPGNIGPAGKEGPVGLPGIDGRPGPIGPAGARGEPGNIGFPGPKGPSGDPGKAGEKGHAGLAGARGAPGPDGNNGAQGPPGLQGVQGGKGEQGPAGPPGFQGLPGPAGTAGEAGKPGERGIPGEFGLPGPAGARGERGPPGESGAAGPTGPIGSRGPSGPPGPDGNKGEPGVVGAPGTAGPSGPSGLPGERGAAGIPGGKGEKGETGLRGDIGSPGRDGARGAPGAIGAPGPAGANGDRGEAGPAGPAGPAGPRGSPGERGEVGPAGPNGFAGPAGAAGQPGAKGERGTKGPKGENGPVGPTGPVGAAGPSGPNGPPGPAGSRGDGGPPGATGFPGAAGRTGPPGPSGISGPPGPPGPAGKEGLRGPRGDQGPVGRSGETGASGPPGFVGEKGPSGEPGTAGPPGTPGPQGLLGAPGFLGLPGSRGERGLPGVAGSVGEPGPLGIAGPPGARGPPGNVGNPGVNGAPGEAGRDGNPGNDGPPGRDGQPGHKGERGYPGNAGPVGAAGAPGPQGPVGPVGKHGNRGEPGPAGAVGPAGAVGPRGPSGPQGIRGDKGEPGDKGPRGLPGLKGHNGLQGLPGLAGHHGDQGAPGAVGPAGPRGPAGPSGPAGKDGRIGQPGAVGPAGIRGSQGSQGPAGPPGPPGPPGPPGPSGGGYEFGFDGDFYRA

Compound	yellowish change of the dermal model (b*), long term treatment	yellowish change of the gel (b*) (10 mM)	yellowish change of the gel (b*) (200 mM)
CCCCCC(O)/C=C/C=O (stereo not drawn) [4-HNE, 4-hydroxynonenal]	reached the maximum in the first 10 days	significant yellowish change	
O=CC=O [glyoxal]		only a slight yellowish change	
C=CC=O [acrolein]	almost linear increase depending on the treatment period	significant yellowish change	
O=C[C@H](O)[C@H](O)[C@H](O)CO [d-ribose]			only a slight yellowish change

Source: US20120114576A1, “Method for preventing or treating yellowish discoloration of skin” (Shiseido Company, Ltd., priority 2010, published 2012)
